Measured values published in ChEMBL document CHEMBL1138956, “Synthesis and in vitro anti-tumor activity of N-{1-[(3-thioxo-5,6-dihydroimidazo[2,1-c][1,2,4]thiadiazol-7-ylthio)thiocarbonyl]-2-imidazolidene}arylsulfonamides” (2006).
Calls of active or inactive are those of the source. No cut-off for these calls is given here.

How the values were obtained:
LOX IMVI = test: Antitumor activity against LOXIMVI cell line; assay type: functional, cell-based; details: Homo sapiens
KYSE-510 = test: Antitumor activity against KYSE510 cell line after 96 hrs using crystal violet; assay type: functional; details: Homo sapiens, KYSE-510, 96 h
SK-OV-3 = test: Antitumor activity against SKOV3 cell line; assay type: functional, cell-based; details: Homo sapiens
RPMI-8226 = test: Antitumor activity against RPMI8226 cell line; assay type: functional, cell-based; details: Homo sapiens
HOP-92 = test: Antitumor activity against HOP92 cell line; assay type: functional, cell-based; details: Homo sapiens
HL-60 = test: Antitumor activity against HL60(TB) cell line; assay type: functional, cell-based; details: Homo sapiens
SR = test: Antitumor activity against SR cell line; assay type: functional, cell-based; details: Homo sapiens
RXF 393 = test: Antitumor activity against RXF393 cell line; assay type: functional, cell-based; details: Homo sapiens
CCRF-CEM = test: Antitumor activity against CCRF-CEM cell line; assay type: functional, cell-based; details: Homo sapiens
SF-539 = test: Antitumor activity against SF539 cell line; assay type: functional, cell-based; details: Homo sapiens
UO-31 = test: Antitumor activity against UO31 cell line; assay type: functional, cell-based; details: Homo sapiens
5637 = test: Antitumor activity against 5637 cell line after 96 hrs using crystal violet; assay type: functional; details: Homo sapiens, 5637, 96 h
ACHN = test: Antitumor activity against ACHN cell line; assay type: functional, cell-based; details: Homo sapiens

| Structure (SMILES) | GI50 (KYSE-510) [µM] | further results |
| --- | --- | --- |
| Cc1ccc(S(=O)(=O)NC2=NCCN2C(=S)SN2CCn3c2nsc3=S)cc1 | ≥ 20 | Activity (LOX IMVI): Active; Activity (SK-OV-3): Active |
| O=S(=O)(NC1=NCCN1C(=S)SN1CCn2c1nsc2=S)c1ccc(Br)cc1 | ≥ 20 | Activity (RPMI-8226): Active; Activity (HOP-92): Active |
| O=S(=O)(NC1=NCCN1C(=S)SN1CCn2c1nsc2=S)c1ccc(Oc2ccccc2)cc1 | ≥ 20 | Activity (HL-60): Active; Activity (SR): Active |
| COc1ccc(S(=O)(=O)NC2=NCCN2C(=S)SN2CCn3c2nsc3=S)cc1OC | ≥ 20 | Activity (RXF 393): Active |
| O=S(=O)(NC1=NCCN1C(=S)SN1CCn2c1nsc2=S)c1ccc(Cl)c(Cl)c1 | ≥ 20 |  |
| O=S(=O)(NC1=NCCN1C(=S)SN1CCn2c1nsc2=S)c1ccc(C(F)(F)F)cc1 | ≥ 20 |  |
| O=S(=O)(NC1=NCCN1C(=S)SN1CCn2c1nsc2=S)c1cccc2ccccc12 | ≥ 20 | Activity (RPMI-8226): Active; Activity (CCRF-CEM): Active |
| O=S(=O)(NC1=NCCN1C(=S)SN1CCn2c1nsc2=S)c1cccc(OC(F)(F)F)c1 | ≥ 20 | Activity (RPMI-8226): Active; Activity (CCRF-CEM): Active |
| O=S(=O)(NC1=NCCN1C(=S)SN1CCn2c1nsc2=S)c1ccc(Cl)cc1Cl | ≥ 20 |  |
| O=S(=O)(NC1=NCCN1C(=S)SN1CCn2c1nsc2=S)c1ccc(-c2ccccc2)cc1 | ≥ 20 |  |
| O=S(=O)(NC1=NCCN1C(=S)SN1CCn2c1nsc2=S)c1ccc(Cl)c(Cl)c1Cl | ≥ 20 |  |
| O=S(=O)(NC1=NCCN1C(=S)SN1CCn2c1nsc2=S)c1ccc(OC(F)(F)F)cc1 | ≥ 20 | Activity (SR): Active; Activity (SF-539): Active |
| O=S(=O)(NC1=NCCN1C(=S)SN1CCn2c1nsc2=S)c1cc(Cl)cc(Cl)c1 | ≥ 20 |  |
| O=S(=O)(NC1=NCCN1C(=S)SN1CCn2c1nsc2=S)c1ccccc1Cl | ≥ 20 | Activity (HL-60): Active; Activity (CCRF-CEM): Active |
| CC(=O)Nc1ccc(S(=O)(=O)NC2=NCCN2C(=S)SN2CCn3c2nsc3=S)cc1 | ≥ 20 |  |
| O=S(=O)(NC1=NCCN1C(=S)SN1CCn2c1nsc2=S)c1cccc(Cl)c1 | ≥ 20 | Activity (CCRF-CEM): Active; Activity (RXF 393): Active |
| COc1ccc(OC)c(S(=O)(=O)NC2=NCCN2C(=S)SN2CCn3c2nsc3=S)c1 | ≥ 20 |  |
| COc1ccc(S(=O)(=O)NC2=NCCN2C(=S)SN2CCn3c2nsc3=S)cc1 | ≥ 20 | Activity (UO-31): Active; Activity (RXF 393): Active |
| O=[N+]([O-])c1ccc(S(=O)(=O)NC2=NCCN2C(=S)SN2CCn3c2nsc3=S)cc1 | ≥ 20 | GI50 5637: 3.67 µM |
| Cc1cc(C)c(S(=O)(=O)NC2=NCCN2C(=S)SN2CCn3c2nsc3=S)c(C)c1 | ≥ 20 |  |
| COc1cccc(S(=O)(=O)NC2=NCCN2C(=S)SN2CCn3c2nsc3=S)c1 | ≥ 20 | Activity (LOX IMVI): Active; Activity (ACHN): Active |
| O=S(=O)(NC1=NCCN1C(=S)SN1CCn2c1nsc2=S)c1ccc(Cl)cc1 | ≥ 20 | Activity (UO-31): Active; Activity (SF-539): Active |
| O=S(=O)(NC1=NCCN1C(=S)SN1CCn2c1nsc2=S)c1ccc(F)c(Cl)c1 | ≥ 20 |  |
| O=S(=O)(NC1=NCCN1C(=S)SN1CCn2c1nsc2=S)c1ccccc1 | ≥ 20 |  |
| O=S(=O)(NC1=NCCN1C(=S)SN1CCn2c1nsc2=S)c1ccc2ccccc2c1 | ≥ 20 |  |
| COc1cc(C)ccc1S(=O)(=O)NC1=NCCN1C(=S)SN1CCn2c1nsc2=S | ≥ 20 |  |
